The record followed here is patent US20230103675A1, “ALLERGEN PROTECTION FOR THE SKIN” (BEIERSDORF AG, priority 2020, published 2023).

A short description of data set [1]: Direct peptide reaction assay (DPRA) with urushiols, Ellman's reagent, 24 h. The following applies: FIG. 9; urushiol structures I-V, 24 h reaction, n=3. The protocol: The reaction courses shown in FIGS. 8 and 9 were determined colorimetrically through the reaction of the peptide with Ellmann's reagent in a photometer. In this reaction, DTNB ((5,5′-dithiobis-2-nitrobenzoic acid, Ellmann's reagent) is cleaved and attached to the SH residue of the amino acid cysteine of the peptides of the invention (Ac-RFAACAA, RFAACAA).
The SH radical is at the same time the reactive binding site of the peptide with the allergens. The color reaction with DTNB (color change from colorless to yellow) competes with the allergen reaction. This means that the better the allergen reacts with the peptide, the less peptide remains available for the reaction with the detection reagent, i.e. the less the resulting yellow coloration.
The control is the peptide in the buffer system without allergen, i.e. instead of allergen only its solvent (ethanol) is added.
Urushiols of the structure below were used.
The investigated urushiols differ in the saturation in the side chain R.
Urushiols where R═C15 singly (C15:1), doubly (C15:2) or triply (C15:3) unsaturated were investigated.
(In general: In Ellman's method for cholinesterases, released thiocholine reacts with DTNB.)

The next data set deals with Phenion skin models. The data set can be described thus: H&E staining of cryosections of Phenion skin models. The conditions noted are these: FIG. 5 B; 0.5 mM peptide, no allergen. The format is cell-based. How it is done:
(§1) The investigations were carried out using Phenion FTS full skin models (Phenion, Henkel). These were maintained for 3 days at 37° C. and 7% CO2 in deep-well plates having a […] pore size in the cell culture inserts. The skin models were maintained in 1.5 ml of air-liquid interface medium without phenol red. The medium was changed daily. The test substances were dissolved in ethanol and incubated at room temperature for 24 h. After culturing for 24 h, 25 μl of the substance solution was dripped onto a sterile filter paper that had previously been laid on the skin model. The barrier peptide (0.5 mM AcRFAACAA) had previously been applied to the model as a solution in 100 mM phosphate buffer (pH 7.5). Alternatively, the barrier peptide was applied in a formulation having a content of 0.25% by weight.
(§2) After culturing for a further 24 h, the models were harvested and one half embedded in OCT mounting medium (VWR Q-Path Chemicals), the other half snap-frozen in liquid nitrogen. The supernatant of each model was collected and stored at −20° C.
In further investigations, frozen sections were thawed and incubated for 10 min in 3.7% paraformaldehyde at RT. After three PBS wash steps and one minute in distilled water, they are stained for 3 min in hematoxylin solution. […]

Data set [2] deals with Phenion FTS full skin models. Put plainly: Cytokine release (IL8, IL6) in supernatants of Phenion FTS full skin models, Bio-Plex multiplex immunoassay. The format is cell-based, human. The conditions noted are these: FIGS. 2 to 4 left bar; 0.5 mM peptide without allergen. How it is done:
as §1, §2
The supernatants were then analyzed (FIGS. 2, 3 and 4).
The supernatants of the Phenion FTS models were analyzed using the Bio-Plex Pro Human Cytokine Screening Panel (Bio-Rad) according to the manufacturer's protocol. […] The cytokine concentrations are calculated on the basis of the standard curves from the Bioplex system. […]

A short description of data set [3]: Barrier effect against metals.

Where no end group is shown, it is not given here.

In the case of RFAACAA [Arg Phe Ala Ala Cys Ala Ala], the “reactivity and thus protective activity against urushiols” value in data set [1] is “very high reactivity”.

“Ac-RFAACAA [Ac-RFAACAA, acetylarginine-phenylalanine-alanine-alanine-cysteine-alanine-alanine]”: the “skin model morphology (H&E) with peptide on its own” value with Phenion skin models is listed as “unchanged”. In addition, in data set [2], the “skin model IL8/IL6 release with peptide on its own” value is reported as “unchanged”. For “His His His His His His (HHHHHH; printed: His His His His His His)”, in data set [3], the “barrier effect against metals and nickel in particular” value is recorded as “achieved a barrier effect”.
